Patent US10092493B2, “Composition of skin external application for anti-aging” (AMOREPACIFIC CORPORATION, priority 2005, dated 2018)

Columns and labels:
[1] = tested on: laminin 10/11; experiment: Biosynthesis of laminin 10/11 in keratinocytes (Western Blot); type: cell-based; conditions: human keratinocytes, 10 ppm, 24 hours; control = 100
Procedure: Human keratinocytes were cultured in a 24-well plate type incubator at a concentration of 5×10^4. The media were exchanged with new medium containing 10 ppm of each test substance. After 24 hours of cultivation, each supernatant was harvested and subjected to the Western Blot method to measure the amount of produced laminin 10/11.

[2] = tested on: type VII collagen; experiment: Biosynthesis of type VII collagen in fibroblasts (Dot Blot); type: cell-based; conditions: human fibroblasts, 10 ppm, 24 hours; control = 100
Procedure: The media were exchanged with new medium containing 10 ppm of each test substance. After 24 hours of cultivation, each supernatant was harvested and subjected to the Dot Blot method to measure the amount of produced type VII collagen.

[3] = tested on: MMP-2; experiment: Inhibition of MMP-2 biosynthesis after UV irradiation (gelatin zymography); type: cell-based; conditions: human keratinocytes, UV-B 30 mJ/cm^2, 10 ppm test substance, 2 days; UV control = 100
Procedure: (§1) After 24 hours, the plate was irradiated by UV-B at 30 mJ/cm^2. The media were exchanged with new medium containing 10 ppm of each test substance. After 2 days of cultivation, each supernatant was harvested and subjected to the zymography using gelatine gel to obtain produced MMP-2 and MMP-9, quantities of which were then measured by a densitometer.

[4] = tested on: Tumor Necrosis Factor alpha (TNF-α); experiment: Inhibition of TNF-α biosynthesis after UV irradiation (ELISA); type: cell-based; conditions: human keratinocytes, UV-B 30 mJ/cm^2, 10 μM (10 ppm of extract), 6 to 24 hours; UV control = 100
Procedure: Human keratinocytes were cultured in a 12-well plate type incubator at a concentration of 10^4. The plate was irradiated by UV-B at 30 mJ/cm^2. The media were exchanged with new medium containing 10 μM of each test substance (10 ppm of extract). After 6 to 24 hours of cultivation, the cells were harvested and subjected to ELISA (Pharmingen 555212) to determine the amount of produced tumor necrosis factor α (TNF-α). As the positive control, Wy-14,643 was used.

[5] = tested on: type IV collagen; experiment: Biosynthesis of type IV collagen in keratinocytes (Dot Blot); type: cell-based; conditions: human keratinocytes, 10 ppm, 24 hours; control = 100
Procedure: The media were exchanged with new medium containing 10 ppm of each test substance. After 24 hours of cultivation, each supernatant was harvested and subjected to the Dot Blot method to measure the amount of produced type IV collagen.

[6] = molecular target: T1, PPAR-α (Peroxisome Proliferator Activated Receptor-alpha) (Homo sapiens, UniProt Q07869); experiment: Activation of PPAR-α, luciferase reporter in CV-1 cells; type: cell-based; conditions: 24 hours, negative control and non-treated group = 1.0
T1 construct: expressed in transfected cells; host or cells: CV-1 monkey kidney epithelial cells (ATCC CCL 70)
T1 sequence (Q07869 1-468): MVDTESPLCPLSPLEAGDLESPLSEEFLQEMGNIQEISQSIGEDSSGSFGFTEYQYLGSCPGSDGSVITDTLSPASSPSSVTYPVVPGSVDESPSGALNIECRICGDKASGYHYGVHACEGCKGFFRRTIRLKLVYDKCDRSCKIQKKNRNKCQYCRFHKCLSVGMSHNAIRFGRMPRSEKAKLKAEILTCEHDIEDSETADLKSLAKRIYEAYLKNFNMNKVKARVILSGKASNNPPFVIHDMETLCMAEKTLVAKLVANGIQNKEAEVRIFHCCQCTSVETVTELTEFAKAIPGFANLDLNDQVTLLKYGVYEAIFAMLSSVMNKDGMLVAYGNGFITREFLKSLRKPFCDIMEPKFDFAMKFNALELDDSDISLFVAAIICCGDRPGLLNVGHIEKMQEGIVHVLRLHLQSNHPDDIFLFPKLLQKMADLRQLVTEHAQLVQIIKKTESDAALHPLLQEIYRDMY
Procedure: Monkey kidney epithelial cell line CV-1 (ATCC CCL 70) was subcultured in a DMEM medium containing 10% fetal bovine serum treated with charcol/dextran, which was a phenol red-free medium to remove the effect by estrogen of phenol red.
CV-1 cells were distributed in a 24-well plate type incubator at a concentration of 5×10^4. After 24 hours cultivation, the 3 different plasmids were transient transfected. After 24 hours cultivation, the plate was washed with 1×PBS (Phosphate Buffered Saline) and treated with ligand candidates at various concentrations. After 24 hours cultivation, the plate was washed with 1×PBS and the cells were lyzed with 1×PLB (Passive Lysis Buffer) and measured for luciferase activity using Dual-Luciferase® Reporter Assay System kit.

[7] = tested on: Type I Collagenase (MMP-1); experiment: Inhibition of type I collagenase (MMP-1) biosynthesis after UV-A irradiation, test substances (ELISA); type: cell-based; conditions: new born human fibroblasts, UV-A 15 J/cm^2, 10 μM or 10 ppm, UV negative control = 100; for Type I collagenase biosynthesis (%), UV-A + TNF-α treated group: plus TNF-α 10 ng/ml
Procedure: To describe the experiment method in detail, human fibroblasts isolated from the skin of a new born baby were cultured in a 48-well plate type incubator at a concentration of 10^4. After 24 hours, the plate was irradiated by UV-A at 15 J/cm^2. […] At the second day of cultivation, the supernatants were harvested and subjected to ELISA (AP biotech RPN2610) to determine the amount of produced type I collagenase. As the positive control, Wy-14,643 and retinoic acid (RA) were used.

[8] = tested on: MMP-9; experiment: Inhibition of MMP-9 biosynthesis after UV irradiation (gelatin zymography); type: cell-based; conditions: human keratinocytes, UV-B 30 mJ/cm^2, 10 ppm test substance, 2 days; UV control = 100
Procedure: as §1

[9] = tested on: pro-collagen; experiment: Biosynthesis of collagen (pro-collagen ELISA) in fibroblasts; type: cell-based, Human; conditions: 48 hours, un-treated control = 100
Procedure: Human fibroblasts were cultured in a 48-well plate type incubator at a concentration of 10^4. The media were exchanged with new medium (theanine: 1, 10, 100 um) containing each test substance of Table 7 at a concentration of 0.001 μM, 0.01 μM, 0.1 μM, 0.5 μM and 2 μM. After 48 hours of cultivation, each supernatant was harvested and subjected to ELISA (Takara MK101) to measure the amount of produced pro-collagen.
Also, in order to examine the synergic effect of theanine on collagen biosynthesis, theanine 10 μM was added to catechin at different 4 concentrations and the result is shown in Table 8.

SMILES | TNF-α biosynthesis (%) [4] [%] | PPAR-α activity ([6]; 10 μM) | PPAR-α activity ([6]; 100 μM) | Type I collagenase biosynthesis (%), UV-A + TNF-α treated group [7] [%] | Type I collagenase biosynthesis (%), UV-A irradiated group [7] [%] | other results
O=c1c(O)c(-c2cc(O)c(O)c(O)c2)oc2cc(O)cc(O)c12 [Myricetin, myricetin] | 36 | 1.7 | 1.6 | 97 | 52 | laminin 10/11 biosynthesis (%) [1]: 132%; type VII collagen biosynthesis (%) [2]: 125%; MMP-2 (%) [3]: 51%; Type IV collagen biosynthesis (%) [5]: 139%; MMP-9 (%) [8]: 55%
O=c1c(O)c(-c2ccc(O)c(O)c2)oc2cc(O)cc(O)c12 [Quercetin, quercetin] | 27 | 1.7 | 2.3 | 91 | 35 | –
Cn1c(=O)c2c(ncn2C)n(C)c1=O [Caffeine, reference compound] | 39 | 1.3 | 1.6 | 91 | 58 | –
O=C(O[C@@H]1Cc2c(O)cc(O)cc2O[C@H]1c1ccc(O)c(O)c1)c1cc(O)c(O)c(O)c1 [CG, catechin gallate] | 37 | 1.2 | 1.6 | 89 | 53 | laminin 10/11 biosynthesis (%) [1]: 129%; type VII collagen biosynthesis (%) [2]: 124%; Collagen biosynthesis ([9]; 0.001 μM): 104.3; Collagen biosynthesis ([9]; 0.01 μM): 118.5; Collagen biosynthesis ([9]; 0.1 μM): 124.9; Collagen biosynthesis ([9]; 0.5 μM): 118.9; Collagen biosynthesis ([9]; 2 μM): 80.3; MMP-2 (%) [3]: 53%; Type IV collagen biosynthesis (%) [5]: 134%; MMP-9 (%) [8]: 55%
Oc1cc(O)c2c(c1)OC(c1ccc(O)c(O)c1)C(O)C2 (single isomer, unassigned; (-)) [(−) C, (−)catechin] | – | 1.4 | 1.2 | – | – | –
Cn1cnc2c1c(=O)[nH]c(=O)n2C [Theobromine] | 25 | 2.2 | 4.5 | 90 | 32 | –
Oc1cc(O)c2c(c1)O[C@H](c1cc(O)c(O)c(O)c1)[C@@H](O)C2 [(−) GC, gallocatechin] | – | 1.1 | 1.0 | – | – | –
Cc1cccc(Nc2cc(Cl)nc(SCC(=O)O)n2)c1C [Wy14643, Wy-14,643, reference compound] | 30 | 3.8 | – | 92 | 60 | PPAR-α activity ([6]; 0.1 μM): 1.5; PPAR-α activity ([6]; 1 μM): 2.6
Oc1cc(O)c2c(c1)O[C@H](c1cc(O)c(O)c(O)c1)[C@H](O)C2 [(−) EGC, epigallocatechin] | – | 1.3 | 1.0 | – | – | –
O=C(O)c1cc(O)c(O)c(O)c1 [Gallic acid] | 36 | 1.3 | 1.7 | 89 | 52 | –
O=C(O)[C@]1(O)C[C@@H](O)[C@@H](O)[C@H](O)C1 [Quinic acid] | 35 | 1.3 | 1.7 | 98 | 75 | –
CC1=C(/C=C/C(C)=C/C=C/C(C)=C/C(=O)O)C(C)(C)CCC1 [RA, retinoic acid, reference compound] | – | – | – | 86 | 48 | –
Oc1cc(O)c2c(c1)O[C@@H](c1ccc(O)c(O)c1)[C@@H](O)C2 [(+) EC, (+)epicatechin] | – | 1.3 | 1.2 | – | – | –
Oc1cc(O)c2c(c1)O[C@H](c1ccc(O)c(O)c1)[C@H](O)C2 [(−) EC, (−)epicatechin] | – | 1.2 | 1.2 | – | – | –
O=C(O[C@@H]1Cc2c(O)cc(O)cc2O[C@@H]1c1ccc(O)c(O)c1)c1cc(O)c(O)c(O)c1 [(−) ECG, epicatechin gallate] | 32 | 1.1 | 1.6 | 87 | 45 | Collagen biosynthesis ([9]; 0.001 μM): 100.5; Collagen biosynthesis ([9]; 0.01 μM): 181.7; Collagen biosynthesis ([9]; 0.1 μM): 165.3; Collagen biosynthesis ([9]; 0.5 μM): 124.5; Collagen biosynthesis ([9]; 2 μM): 77.8
Oc1cc(O)c2c(c1)O[C@H](c1ccc(O)c(O)c1)[C@@H](O)C2 [(+) C, (+)catechin] | 40 | 1.5 | 1.4 | 86 | 45 | –
CCNC(=O)CC[C@H](N)C(=O)O [Theanine] | 30 | 1.8 | 1.9 | 95 | 60 | Collagen biosynthesis ([9]; 10 μM): 132.1; Collagen biosynthesis ([9]; 100 μM): 167.5
O=c1c(O)c(-c2ccc(O)cc2)oc2cc(O)cc(O)c12 [Kaempferol, kaempferol] | 41 | 1.7 | 1.4 | 94 | 48 | –
Cn1c(=O)c2[nH]cnc2n(C)c1=O [Theophylline, reference compound] | 36 | 1.4 | 1.7 | 92 | 40 | –
